{"source": "paper PMC9983021", "about": "“Novel GluN2B-Selective NMDA Receptor Negative Allosteric Modulator Possesses Intrinsic Analgesic Properties and Enhances Analgesia of Morphine in a Rodent Tail Flick Pain Model” (ACS Chemical Neuroscience, 2023)", "key": {"Sprague-Dawley rats": {"test_system": "Sprague-Dawley rats", "experiment": "Chung spinal nerve ligation model of allodynia", "type": "in vivo", "conditions": "male rats, 10 mg/kg i.p., n=10", "description": "Methods for Chung Spinal Nerve Ligation\nThe Chung spinal nerve ligation model was implemented by Algos Therapeutics. Male Sprague-Dawley rats (Hsd:Sprague-Dawley®™SD®™, Harlan, Indianapolis, Indiana, U.S.A.) weighing 222 ± 1 g were housed three per cage and given ad libitum access to food and water. Animal holding rooms operated on a 12:12h light/dark schedule for the entire duration of the study. The animal colony was maintained at 21 °C and 60% humidity. All experiments were conducted in accordance with the International Association for the Study of Pain guidelines and were approved by the University of Minnesota Animal Care and Use Committee.\nAllodynia was induced via the Chung spinal nerve ligation (SNL) method116 in which the animals were anesthetized with isoflurane, the left L5 transverse process was removed, then the L5 and L6 spinal nerves were tightly ligated with 6-0 silk suture. Finally, the wound was closed with internal sutures and external staples. Allodynia was assessed using 8 Semmes-Weinstein filaments (Stoelting, Wood Dale, IL, USA) with varying stiffness (0.4, 0.7, 1.2, 2.0, 3.6, 5.5, 8.5, and 15 g) following the up-down method117 first published by Chaplan et al. in 1994. Baseline measurements were taken two weeks following SNL and prior to compound administration. Measurements were also taken 30, 60, 120 and 240 minutes post intraperitoneal compound injection. […]"}, "C57BL/6J mice": {"test_system": "C57BL/6J mice", "experiment": "Morphine analgesic tolerance development, chronic co-administration (tail immersion test)", "type": "in vivo", "conditions": "male (10 mg/kg) and female (20 mg/kg) mice; co-administered with morphine three times a day for three days", "description": "Morphine tolerance was induced using repeated administration of increasing doses of morphine from 25 to 40 mg/kg three times a day at 3 to 4 h intervals over three consecutive days (Figure 9). This procedure was adapted from previous publications.[87]−[89]\nFigure 9 Morphine analgesic tolerance “stair stepping” dosing regimen. TIT = tail immersion test. On day 1, TIT was conducted to determine baseline latencies for all mice. On days 1 through 3, each mouse was administered morphine s.c. three times per day at doses increasing from 25 to 40 mg/kg at 8:00 am, 12:00 pm, and 4:00 pm. Doses of morphine are shown above the arrows, in mg/kg. […]\nMouse weights were recorded on the day of each experiment. […] Three recordings were taken for each mouse, and each data point is expressed as the mean of the three recordings. […] The identities were not decoded until the data were analyzed.\nPrism 9.3.1 software (GraphPad, San Diego, CA) was used for all data analysis and visualization. Data for intrinsic antinociception was analyzed using one-way ANOVA and Dunnett’s post hoc test for multiple comparisons where each group was compared to vehicle. Data for acute morphine potentiation experiments were analyzed using one-way ANOVA and Tukey’s post hoc test for multiple comparisons was also used, where each group mean was compared to the mean of every other group. […]"}, "GluN1/GluN2A": {"biological_target": "GluN1/GluN2A (Rattus norvegicus, UniProt P35439+Q00959)", "sequence (Q00959 23-1464, other chains not shown)": "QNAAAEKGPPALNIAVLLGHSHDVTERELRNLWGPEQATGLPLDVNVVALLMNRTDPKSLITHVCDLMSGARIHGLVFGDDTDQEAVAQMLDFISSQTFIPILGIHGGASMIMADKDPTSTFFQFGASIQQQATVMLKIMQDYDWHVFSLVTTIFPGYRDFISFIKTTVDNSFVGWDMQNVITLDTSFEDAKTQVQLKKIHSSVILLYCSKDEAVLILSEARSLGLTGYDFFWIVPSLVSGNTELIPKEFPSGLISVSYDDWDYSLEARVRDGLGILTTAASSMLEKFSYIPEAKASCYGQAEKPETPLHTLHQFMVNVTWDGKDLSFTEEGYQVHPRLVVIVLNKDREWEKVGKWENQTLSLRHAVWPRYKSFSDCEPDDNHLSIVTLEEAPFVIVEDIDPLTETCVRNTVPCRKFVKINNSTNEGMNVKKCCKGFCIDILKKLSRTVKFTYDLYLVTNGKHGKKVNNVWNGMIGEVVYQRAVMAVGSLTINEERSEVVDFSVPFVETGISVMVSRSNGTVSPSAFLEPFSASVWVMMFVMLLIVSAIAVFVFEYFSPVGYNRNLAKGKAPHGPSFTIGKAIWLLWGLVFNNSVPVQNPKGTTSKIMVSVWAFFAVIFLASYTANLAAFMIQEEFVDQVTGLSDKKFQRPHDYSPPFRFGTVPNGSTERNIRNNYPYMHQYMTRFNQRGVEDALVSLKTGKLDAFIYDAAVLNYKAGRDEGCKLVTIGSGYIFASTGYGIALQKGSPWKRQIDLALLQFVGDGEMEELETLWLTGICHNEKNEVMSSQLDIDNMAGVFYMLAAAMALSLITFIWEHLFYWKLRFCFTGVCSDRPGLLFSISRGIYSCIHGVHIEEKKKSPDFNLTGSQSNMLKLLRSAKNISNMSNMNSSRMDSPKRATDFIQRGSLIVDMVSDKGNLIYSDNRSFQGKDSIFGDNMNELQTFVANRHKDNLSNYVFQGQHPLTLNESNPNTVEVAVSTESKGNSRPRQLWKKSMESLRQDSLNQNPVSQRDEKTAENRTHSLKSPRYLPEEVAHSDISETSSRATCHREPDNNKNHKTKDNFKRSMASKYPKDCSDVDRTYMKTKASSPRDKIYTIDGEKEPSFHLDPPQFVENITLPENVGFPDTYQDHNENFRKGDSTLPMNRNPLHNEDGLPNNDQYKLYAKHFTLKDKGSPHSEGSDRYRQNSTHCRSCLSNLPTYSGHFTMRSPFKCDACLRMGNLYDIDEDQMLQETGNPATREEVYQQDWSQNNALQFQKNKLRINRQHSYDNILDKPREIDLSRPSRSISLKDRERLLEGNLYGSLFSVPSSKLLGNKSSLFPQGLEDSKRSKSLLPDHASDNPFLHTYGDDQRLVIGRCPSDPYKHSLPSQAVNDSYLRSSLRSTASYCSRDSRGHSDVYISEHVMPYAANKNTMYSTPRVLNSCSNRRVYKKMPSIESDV"}, "GluK2": {"biological_target": "T1, GluK2 (Homo sapiens, UniProt Q13002)", "T1 construct": "expressed in transfected cells; host or cells: Xenopus oocytes", "T1 sequence (Q13002 32-908, species assumed)": "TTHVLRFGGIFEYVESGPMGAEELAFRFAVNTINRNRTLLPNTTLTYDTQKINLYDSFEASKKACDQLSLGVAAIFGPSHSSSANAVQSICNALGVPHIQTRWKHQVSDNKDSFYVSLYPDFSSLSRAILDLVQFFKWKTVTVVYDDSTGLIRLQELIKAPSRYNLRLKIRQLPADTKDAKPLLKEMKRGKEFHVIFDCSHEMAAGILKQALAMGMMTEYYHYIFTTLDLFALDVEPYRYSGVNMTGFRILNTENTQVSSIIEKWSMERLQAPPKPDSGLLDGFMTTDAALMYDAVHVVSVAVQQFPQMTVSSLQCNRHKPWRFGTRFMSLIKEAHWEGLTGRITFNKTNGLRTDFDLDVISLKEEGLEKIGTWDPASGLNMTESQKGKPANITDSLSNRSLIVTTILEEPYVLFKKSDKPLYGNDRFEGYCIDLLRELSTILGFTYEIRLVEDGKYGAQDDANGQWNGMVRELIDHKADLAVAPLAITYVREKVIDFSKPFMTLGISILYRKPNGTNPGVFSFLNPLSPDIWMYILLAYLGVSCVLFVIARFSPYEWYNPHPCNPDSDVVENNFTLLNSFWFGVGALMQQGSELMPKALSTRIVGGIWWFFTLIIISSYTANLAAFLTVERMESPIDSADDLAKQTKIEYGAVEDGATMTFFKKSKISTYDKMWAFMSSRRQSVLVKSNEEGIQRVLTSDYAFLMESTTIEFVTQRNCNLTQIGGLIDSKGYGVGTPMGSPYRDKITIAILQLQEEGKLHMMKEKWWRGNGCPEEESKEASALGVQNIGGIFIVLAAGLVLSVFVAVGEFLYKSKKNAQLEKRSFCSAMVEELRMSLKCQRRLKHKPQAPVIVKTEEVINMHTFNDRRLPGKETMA", "experiment": "Off-target ligand-gated ion channels in Xenopus oocytes", "type": "cell-based", "conditions": "agonist 100 µM glutamate; mean ± SEM", "description": "(§1) EU93-108 was further examined for its behavior against common off-target receptors. First, selectivity for GluN2B over other ion channels in the brain was examined via two-electrode voltage clamp recordings of Xenopus oocytes expressing AMPA, kainate, nicotinic acetylcholine, serotonin, GABA, glycine, and ATP receptors. Current responses were tested with saturating concentrations of agonist in both the absence and presence of 10 μM EU93-108, and confirmed selectivity for GluN2B-containing NMDA receptors over AMPA, kainate, GABA, glycine, ATP, and 5-HT3A receptors (Supporting Table S3).\n(§2) Receptor Agonist % Control\n(§3) Supplemental Table S3. Off-target actions of EU93-108 at ligand-gated ion channels expressed in Xenopus oocytes. The mean ± standard error of the mean for agonist plus 10 μM EU93-108 as a percentage of agonist in vehicle are given for each compound and receptor tested. Number of oocytes tested is given in parentheses."}, "rGluN1/GluN3B": {"biological_target": "T2, rGluN1/GluN3B (Rattus norvegicus, UniProt P35439+Q8VHN2)", "T2 construct": "expressed in transfected cells; host or cells: Xenopus oocytes", "T2 sequence (Q8VHN2 25-1002, other chains not shown)": "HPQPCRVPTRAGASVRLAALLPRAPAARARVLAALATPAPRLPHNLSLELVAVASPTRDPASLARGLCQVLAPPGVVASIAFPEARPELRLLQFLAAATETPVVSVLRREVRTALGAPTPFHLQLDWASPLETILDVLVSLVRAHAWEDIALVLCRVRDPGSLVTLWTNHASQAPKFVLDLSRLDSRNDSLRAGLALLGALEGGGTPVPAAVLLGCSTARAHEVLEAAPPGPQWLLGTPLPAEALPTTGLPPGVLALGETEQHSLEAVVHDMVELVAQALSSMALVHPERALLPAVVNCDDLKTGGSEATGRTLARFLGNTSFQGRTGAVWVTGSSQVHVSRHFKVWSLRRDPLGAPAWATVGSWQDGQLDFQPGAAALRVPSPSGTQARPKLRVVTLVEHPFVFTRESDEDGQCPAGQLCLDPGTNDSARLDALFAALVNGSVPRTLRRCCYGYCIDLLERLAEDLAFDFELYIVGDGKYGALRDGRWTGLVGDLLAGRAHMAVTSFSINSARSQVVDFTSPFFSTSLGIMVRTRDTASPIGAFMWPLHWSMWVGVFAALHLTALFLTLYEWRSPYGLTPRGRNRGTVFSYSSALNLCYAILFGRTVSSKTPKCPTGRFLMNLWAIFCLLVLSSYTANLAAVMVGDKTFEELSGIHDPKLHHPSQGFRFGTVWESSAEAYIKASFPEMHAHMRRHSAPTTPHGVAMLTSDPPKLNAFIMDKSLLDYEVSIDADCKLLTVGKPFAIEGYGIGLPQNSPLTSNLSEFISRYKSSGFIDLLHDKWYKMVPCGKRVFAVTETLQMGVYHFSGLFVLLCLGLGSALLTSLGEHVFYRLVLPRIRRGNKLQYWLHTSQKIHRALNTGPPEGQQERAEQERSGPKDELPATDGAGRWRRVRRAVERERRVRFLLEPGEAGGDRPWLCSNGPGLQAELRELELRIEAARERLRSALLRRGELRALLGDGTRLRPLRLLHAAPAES", "experiment": "Off-target ligand-gated ion channels in Xenopus oocytes", "type": "cell-based", "conditions": "agonist 100 µM glycine; mean ± SEM", "description": "as §1, §2, §3"}, "ρ-GABAC": {"test_system": "ρ-GABAC", "experiment": "Off-target ligand-gated ion channels in Xenopus oocytes", "type": "cell-based", "conditions": "agonist 100 µM GABA; mean ± SEM", "description": "as §1, §2, §3"}, "α4β2-nACh": {"biological_target": "T3, α4β2-nACh (Homo sapiens, UniProt P17787+P43681)", "T3 construct": "expressed in transfected cells; host or cells: Xenopus oocytes", "experiment": "Off-target ligand-gated ion channels in Xenopus oocytes", "type": "cell-based", "conditions": "agonist 10 µM acetylcholine; mean ± SEM", "description": "as §1, §2, §3"}, "α7-nACh": {"biological_target": "T4, α7-nACh (Homo sapiens, UniProt P36544)", "T4 construct": "expressed in transfected cells; host or cells: Xenopus oocytes", "T4 sequence (P36544 23-502)": "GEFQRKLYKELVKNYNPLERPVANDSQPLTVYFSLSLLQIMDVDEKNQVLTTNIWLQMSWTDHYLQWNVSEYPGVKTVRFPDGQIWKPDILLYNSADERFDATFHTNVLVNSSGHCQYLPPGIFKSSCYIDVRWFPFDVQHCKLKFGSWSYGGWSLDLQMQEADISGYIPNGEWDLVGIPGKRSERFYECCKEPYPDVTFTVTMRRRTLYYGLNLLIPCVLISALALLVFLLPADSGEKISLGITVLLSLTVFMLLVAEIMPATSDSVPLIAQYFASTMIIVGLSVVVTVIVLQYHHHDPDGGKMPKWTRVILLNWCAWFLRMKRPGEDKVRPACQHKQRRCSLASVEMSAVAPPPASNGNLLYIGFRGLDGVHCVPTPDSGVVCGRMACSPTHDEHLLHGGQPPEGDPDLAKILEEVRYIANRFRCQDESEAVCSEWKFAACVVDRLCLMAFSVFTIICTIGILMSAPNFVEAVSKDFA", "experiment": "Off-target ligand-gated ion channels in Xenopus oocytes", "type": "cell-based", "conditions": "agonist 300 µM acetylcholine; mean ± SEM", "description": "as §1, §2, §3"}, "hGluA3-L531Y": {"biological_target": "T5, hGluA3-L531Y (Homo sapiens, UniProt P42263, L513Y)", "T5 construct": "expressed in transfected cells; host or cells: Xenopus oocytes", "T5 sequence (P42263 29-894 L513Y)": "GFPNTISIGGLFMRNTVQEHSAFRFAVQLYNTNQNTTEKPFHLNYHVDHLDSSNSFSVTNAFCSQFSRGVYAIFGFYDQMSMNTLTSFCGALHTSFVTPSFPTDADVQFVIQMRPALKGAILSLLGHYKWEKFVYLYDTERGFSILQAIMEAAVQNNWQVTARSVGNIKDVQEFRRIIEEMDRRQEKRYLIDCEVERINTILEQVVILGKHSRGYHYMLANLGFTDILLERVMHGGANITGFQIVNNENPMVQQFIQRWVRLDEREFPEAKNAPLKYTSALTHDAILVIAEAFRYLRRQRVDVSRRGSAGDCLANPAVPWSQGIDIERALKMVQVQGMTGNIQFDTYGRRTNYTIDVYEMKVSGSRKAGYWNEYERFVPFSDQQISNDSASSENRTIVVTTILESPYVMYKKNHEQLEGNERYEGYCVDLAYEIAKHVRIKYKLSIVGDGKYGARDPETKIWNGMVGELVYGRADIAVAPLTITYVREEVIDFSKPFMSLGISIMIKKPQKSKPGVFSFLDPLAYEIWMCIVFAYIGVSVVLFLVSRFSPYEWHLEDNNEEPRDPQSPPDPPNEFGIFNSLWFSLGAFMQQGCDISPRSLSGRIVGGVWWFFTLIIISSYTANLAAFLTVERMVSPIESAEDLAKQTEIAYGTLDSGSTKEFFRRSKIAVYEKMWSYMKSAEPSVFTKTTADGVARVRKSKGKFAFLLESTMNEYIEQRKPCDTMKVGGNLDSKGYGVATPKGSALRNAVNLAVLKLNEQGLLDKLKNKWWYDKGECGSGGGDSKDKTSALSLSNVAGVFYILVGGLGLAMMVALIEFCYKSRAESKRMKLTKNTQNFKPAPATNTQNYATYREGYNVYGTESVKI", "experiment": "Off-target ligand-gated ion channels in Xenopus oocytes", "type": "cell-based", "conditions": "agonist 100 µM glutamate; mean ± SEM", "description": "as §1, §2, §3"}}}
{"smiles": "CS(=O)(=O)Nc1ccc(OC[C@@H](O)CN2CCN(c3ccc(F)c(F)c3)CC2)cc1", "note": "[EU93-108, (S)-N-(4-(3-(4-(3,4-Difluorophenyl)piperazin-1-yl)-2-hydroxypropoxy)phenyl)methanesulfonamide]", "values": [{"measurement": "effect on allodynia (von Frey threshold)", "setting": "Sprague-Dawley rats", "value": "efficacious"}, {"measurement": "effect on development of morphine tolerance", "setting": "C57BL/6J mice", "value": "failed to inhibit the development of tolerance"}, {"measurement": "% Control 10 µM EU93-108", "setting": "GluN1/GluN2A; agonist 100 µM glutamate, 30 µM glycine, mean ± SEM", "value": "95.6 ± 1.6", "unit": "%"}, {"measurement": "inhibition at 10 µM", "setting": "GluN1/GluN2A; read-out: Mean % Inhibition by 10 μM EU93-108", "value": "4.6 ± 1.5", "unit": "%"}, {"measurement": "% Control 10 µM EU93-108", "setting": "GluK2", "value": "88.1 ± 4.4", "unit": "%"}, {"measurement": "% Control 10 µM EU93-108", "setting": "rGluN1/GluN3B", "value": "108.8 ± 4.0", "unit": "%"}, {"measurement": "% Control 10 µM EU93-108", "setting": "ρ-GABAC", "value": "97 ± 1.5", "unit": "%"}, {"measurement": "% Control 10 µM EU93-108", "setting": "α4β2-nACh", "value": "3.2 ± 0.7", "unit": "%"}, {"measurement": "% Control 10 µM EU93-108", "setting": "α7-nACh", "value": "70.9 ± 6.5", "unit": "%"}, {"measurement": "% Control 10 µM EU93-108", "setting": "hGluA3-L531Y", "value": "94.7 ± 5.1", "unit": "%"}]}
